Assay results published in PubChem BioAssay (NCI).
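Step 1: Grow cells in 96-well plates. Step 2: Expose to compound for 48 hours at 5 concentrations. Step 3: Interpolate endpoints linearly; if unreached, use highest concentration. GI50 marks 50% less growth. TGI is the concentration that stops growth completely.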

Experiments:
Assay in all cases: NCI-60 cell line screen, 48 h
A498 renal = tested on: A498 renal
ACHN renal = tested on: ACHN renal
MALME-3M melanoma = tested on: MALME-3M melanoma
NCI-H23 lung = tested on: NCI-H23 lung
NCI-H522 lung = tested on: NCI-H522 lung
SK-MEL-5 melanoma = tested on: SK-MEL-5 melanoma
UACC-257 melanoma = tested on: UACC-257 melanoma
OVCAR-3 ovarian = tested on: OVCAR-3 ovarian
SR leukemia = tested on: SR leukemia
PC-3 prostate = tested on: PC-3 prostate

| SMILES | GI50 (A498 renal) | TGI (A498 renal) | GI50 (ACHN renal) | TGI (ACHN renal) | GI50 (MALME-3M melanoma) [µM] | TGI (MALME-3M melanoma) [µM] | GI50 (NCI-H23 lung) | TGI (NCI-H23 lung) | GI50 (NCI-H522 lung) | TGI (NCI-H522 lung) | GI50 (SK-MEL-5 melanoma) | TGI (SK-MEL-5 melanoma) | GI50 (UACC-257 melanoma) | TGI (UACC-257 melanoma) | TGI (OVCAR-3 ovarian) | TGI (SR leukemia) [µM] | GI50 (OVCAR-3 ovarian) | GI50 (PC-3 prostate) | TGI (PC-3 prostate) |
| --- | --- | --- | --- | --- | --- | --- | --- | --- | --- | --- | --- | --- | --- | --- | --- | --- | --- | --- | --- |
| O=C([CH-]C(=O)c1ccccc1)c1ccccc1.O=C([CH-]C(=O)c1ccccc1)c1ccccc1.[La+3].[OH-].[OH3+] | 17.9 µM | 87.7 µM | 19.6 µM | > 100 µM | 23 | 69.5 | 12.2 µM | 48.6 µM | 3.29 µM | 19.8 µM | 10.3 µM | 23.9 µM | 16.3 µM | 46.5 µM | – | – | – | – | – |
| CC(C)C1CC[C@@H](C)C[C@@]1(O)CC(N)=O (stereo partly specified) | – | – | – | > 100 µM | – | > 100 | – | > 100 µM | – | > 100 µM | – | > 100 µM | – | > 100 µM | > 100 µM | > 100 | – | – | – |
| Cc1ccc(S(=O)(=O)OC2CSS(=O)CC2OS(=O)(=O)c2ccc(C)cc2)cc1 (stereo unspecified) | – | 30.1 µM | – | 31.3 µM | – | 27.8 | – | 29 µM | – | 22.6 µM | – | 30.1 µM | – | 28.2 µM | 31.8 µM | 8.15 | – | – | – |
| Oc1c(C(Nc2cccc3cccnc23)c2ccccc2)ccc2cccnc12 (stereo unspecified) | – | 66.6 µM | – | > 100 µM | – | > 100 | – | > 100 µM | – | 73.8 µM | – | – | – | 35.9 µM | > 100 µM | 10.4 | – | – | – |
| COC(=O)/C(C)=C(/CCC1(C)OCCO1)O[Si](C)(C)C | – | – | – | > 100 µM | – | > 100 | – | > 100 µM | – | – | – | > 100 µM | – | > 100 µM | > 100 µM | – | – | – | – |
| CCOc1ccccc1N1C(=O)C(=O)C(c2nc3ccccc3o2)C(=O)C1=O | – | > 100 µM | – | > 100 µM | – | > 100 | – | > 100 µM | – | > 100 µM | – | > 100 µM | – | > 100 µM | > 100 µM | > 100 | – | – | – |
| CC(C)(C)c1ccc(Oc2nccc(-c3c(-c4ccc(F)cc4)ncn3C3CCNCC3)n2)cc1 | 3.89 µM | 7.49 µM | 3.49 µM | 6.78 µM | 4.94 | 9.38 | – | – | 4.69 µM | 8.58 µM | 3.68 µM | 7.03 µM | – | – | 7.77 µM | – | 4.25 µM | 2.88 µM | 6.19 µM |
| O=C(O)C(SC(=S)c1ccc(C(=S)SC(C(=O)O)c2ccccc2)cc1)c1ccccc1 (stereo unspecified) | – | > 100 µM | – | > 100 µM | – | > 100 | – | > 100 µM | – | – | – | > 100 µM | – | > 100 µM | > 100 µM | > 100 | – | – | – |
| Cc1cc(=O)n(-c2ccccc2C)c(C)n1 | – | > 100 µM | – | > 100 µM | – | > 100 | – | > 100 µM | – | > 100 µM | – | > 100 µM | – | > 100 µM | > 100 µM | – | – | – | – |
| CCCCOC(=O)C1C2CCC(O2)C1C(=O)OCCCC (stereo unspecified) | – | > 100 µM | – | > 100 µM | – | > 100 | – | > 100 µM | – | > 100 µM | – | > 100 µM | – | > 92.2 µM | > 100 µM | – | – | – | – |
| CCS(CC)(CC)CC1CCCC2=CCC(P(=O)(c3ccccc3)c3ccccc3)CC21 (stereo unspecified) | – | 28 µM | – | 22.4 µM | – | 40 | – | 25.6 µM | – | 25.5 µM | – | 29.8 µM | – | – | 30.5 µM | 25.5 | – | – | – |
| CCOc1ccc2c(c1)[n+]([O-])c(-c1ccc(Cl)cc1)c(N)[n+]2[O-] | – | > 100 µM | – | > 100 µM | – | > 100 | – | > 100 µM | – | > 100 µM | – | > 100 µM | – | > 100 µM | > 100 µM | > 100 | – | – | – |
| COc1ccc(Br)c(N/N=C2\CCCNC2=O)c1 | – | – | – | > 100 µM | – | > 100 | – | > 100 µM | – | > 100 µM | – | > 100 µM | – | > 100 µM | > 100 µM | > 100 | – | – | – |
| O=[N+]([O-])c1cc(C(F)(F)F)cc([N+](=O)[O-])c1CCl | – | 38 µM | – | 27.9 µM | – | 13.1 | – | 5.7 µM | – | 0.812 µM | – | 1.75 µM | – | 10.2 µM | 10.5 µM | 2.72 | – | – | – |
| Oc1ccccc1/C=C/c1csnn1 | – | > 100 µM | – | > 100 µM | – | > 100 | – | > 100 µM | – | > 100 µM | – | > 100 µM | – | > 100 µM | > 100 µM | > 68 | – | – | – |
| CCC(C)(CC(C)(C)C(=O)NCC(=O)NC(Cc1ccccc1)C(=O)NC(Cc1ccccc1)C(=O)NCC(=O)NC1CC(OC2CC(O)(C(=O)CO)Cc3c(O)c4c(c(O)c32)C(=O)c2c(OC)cccc2C4=O)OC(C)C1O)C(=O)NCC(C)O (stereo unspecified) | > 150 µg/mL | > 150 µg/mL | 73.9 µg/mL | > 150 µg/mL | – | – | 72.9 µg/mL | > 150 µg/mL | 45.5 µg/mL | > 150 µg/mL | 28.8 µg/mL | 148 µg/mL | > 150 µg/mL | > 150 µg/mL | > 150 µg/mL | – | > 150 µg/mL | > 150 µg/mL | > 150 µg/mL |
